Data on seven compounds can be found in patent US20070202574A1, “Novel Saccharothrix Strain an Antibiotics Derived Therefrom, i.e. Mutactimycins and Aldgamycins” (Institut National Polytechnique de Toulouse, priority 2004, published 2007).

By MIC is commonly meant the lowest concentration that inhibits growth of the organism. Low readings indicate a more susceptible organism, high ones a less susceptible organism.

≈ marks a conversion by molar mass, not a printed value. Where “and” joins values, the source holds several entries; their conditions need not be identical. Equal entries are not always repeated. Entries after “also recorded” stand apart in the source; their conditions may differ.

Data set [1] relates to Bacillus subtilis ATCC 6633. Nature of the data set: MIC, antimicrobial spectrum. As to conditions: for MIC: ATCC6633, Bacillus subtilis ATCC 6633. Type of data set: cell-based.
Data set [2] relates to Micrococcus luteus ATCC 9314. Nature of the data set: MIC, antimicrobial spectrum. The data set is classed as cell-based. As to conditions: for MIC: ATCC9314, Micrococcus luteus ATCC 9314; for activity in words: M. luteus.
In data set [3] the test system is Staphylococcus aureus CIP 53156. Nature of the data set: MIC, antimicrobial spectrum. The settings on record: for MIC: Staphylococcus aureus, CIP53156, Staphylococcus aureus CIP 53156; for activity in words: Staphylococcus aureus CIP 53156. Type of data set: cell-based.
The subject of data set [4] is Listeria monocytogenes CIP 82110. Nature of the data set: MIC, antimicrobial spectrum. Type of data set: cell-based. The settings on record: CIP82110, Listeria monocytogenes CIP 82110.
Data set [5] relates to Mycobacterium smegmatis ATCC 607. Nature of the data set: MIC, antimicrobial spectrum. The data set is classed as cell-based. As to conditions: for MIC: Mycolicibacterium smegmatis, ATCC607, Mycobacterium smegmatis ATCC 607; for activity in words: Mycobacterium smegmatis.
Data set [6] concerns Klebsiella pneumoniae CIP 82.91. Briefly: MIC, antimicrobial spectrum. The settings on record: for MIC: Klebsiella pneumoniae, CIP82, Klebsiella pneumoniae CIP 82.91; for activity in words: K. pneumoniae. The data set is classed as cell-based.
In a further data set the test system is Bacillus subtilis. Nature of the data set: HPLC fractions tested against Bacillus subtilis (gelose diffusion test). The data set is classed as cell-based. As to conditions: concentrated HPLC peak fractions. How it is done:
A sample of the strain SA 103 taken from an immature inclined culture was inoculated into an Erlenmeyer flask containing 50 ml of the sterile culture medium containing 0.4t glucose, a 1% malt extract and a 0.4% yeast extract (adjusted to pH 7.2 before sterilisation) and placed in culture on a rotary stirrer (250 rpm) at 30° C. for two days. For producing antibiotics, 3 ml of culture medium were transferred to 500 ml Erlenmeyer flasks, each containing 100 ml of the above medium, and placed in culture for 10 days using the same conditions. The production of total antibacterial activity was carried out on a nutrient gelose, by a gelose diffusion test against Bacillus sutilis ATCC 6633. Inhibition of growth was examined after 24 hours of incubation at 30° C. Antimicrobial activity was estimated by measuring the diameter of the inhibition zone. The dry weight of the mycelium was determined in Eppendorf tubes filled with 1 ml of homogenized culture medium and dried at 105° C. for 24 hours (Pfefferle et al. J. Biotech. 80:135-142, 2000).
The butanolic extract, of a red colour, was concentrated on the Rotavapor. An aliquot of this extract was first sent through a Sephadex LH 20 column using methanol in double distilled water (80%) as the mobile phase. However, the separation of the antibiotics (visualisation by the naked eye and by the antibiography) was not conclusive. This step was therefore eliminated and the butanolic extract was purified directly by a reverse phase HPLC using a C18 column and isocratic conditions (63% methanol in water), a flow rate of 1.5 ml/min and detection at 220 nm. The fractions corresponding to all the peaks obtained on the profile were collected separately, concentrated and tested against Bacillus subtilis. […] These antibiotics were purified by HPLC after 3 to 4 reinjections in the same conditions as previously.

Data set [7] in a line: Relative solubility in solvents. Type of data set: physicochemical. The settings on record: value = list of solvents; for Relative solubility: Highly soluble (solvents) / Relative solubility: Insoluble (solvents) / Relative solubility: Medium soluble (solvents): wrapped cells given line by line. The text has this:
The antibiotics P11, PR, F and G are bright red in colour at neutral pH, yellow at acid pH and violet-blue at basic pH. P11 is the majority antibiotic and PR, the minority antibiotic. These antibiotics were the subject of the following […] analyses: UV visible light, infrared, mass spectrometry and NMR of the proton and carbon 13 (with studies of the correlations). Supplementary tests, such a solubility, determination of Rf by CCM and elemental analysis (the latter only for P11) were also carried out.

In data set [8] the test system is Staphylococcus aureus CIP 7625. Nature of the data set: MIC, antimicrobial spectrum. Type of data set: cell-based. As to conditions: CIP7625.
The test system of data set [9] is Escherichia coli ATCC 10536. Nature of the data set: MIC, antimicrobial spectrum. Type of data set: cell-based. As to conditions: ATCC10536.
Data set [10] has as its system Pseudomonas syringae No 1882. Briefly: MIC, antimicrobial spectrum. The data set is classed as cell-based. The settings on record: NO1882.
Data set [11] concerns Agrobacterium tumefaciens No 2410. Briefly: MIC, antimicrobial spectrum. Type of data set: cell-based. As to conditions: NO2410.
Data set [12] has as its system Mucor ramannianus NRRL 1829. Briefly: MIC, antimicrobial spectrum. The data set is classed as cell-based. As to conditions: Umbelopsis ramanniana, NRRL1829.
The test system of data set [13] is Saccharomyces cerevisiae ATCC 4226. Nature of the data set: MIC, antimicrobial spectrum. As to conditions: ATCC4226. The data set is classed as cell-based.

With `COC1C(OCC2C(C)OC(=O)/C=C/C(C)C(OC3OC(C)CC4(OC(=O)OC4C)C3O)C(C)CC(C)C(=O)/C=C/C3OC32)OC(C)C(O)C1OC` (stereo not drawn) [P10a, aldgamycin G], the MIC was 1 mg/L (≈ 1.35 µM) in data set [1]; 1 mg/L (≈ 1.35 µM) in data set [2]; 1 mg/L (≈ 1.35 µM) in data set [3]; 30 mg/L (≈ 40.5 µM) in data set [4]; 50 mg/L (≈ 67.5 µM) in [5]; 0.1 mg/L (≈ 0.135 µM) in [6]. In the data set on Bacillus subtilis, the “activity of the collected HPLC fraction against Bacillus subtilis” value (from here on “activity of the collected HPLC fraction”) is recorded as “active”. Also, the “soluble in (solvents)” value in data set [7] was “n-butanol, 1 and 2-propanol, methanol, dichloromethane, ethyl acetate, chloroform, acetone and ethanol”. Further, the “Relative solubility: Highly soluble (solvents)” value in data set [7] was “methanol, n-butanol, ethanol, 1 and 2-propnol, ethyl acetate, acetone, chloroform and dichloromethane; also recorded: MeOH, EtOH, Me2CO,; also recorded: n-BuOH, 1-PrOH, 2-; also recorded: PrOH, CH2Cl2,; also recorded: EtOAc, CHCl3”.

Take `COc1cccc2c1C(=O)c1c(O)c3c(c(O)c1C2=O)CC(C)(O)CC3OC1OC(C)C(O)C(OC)C1O` (stereo not drawn) [P11, mutactimycin C]: the MIC in [1] was 40 mg/L (≈ 75.4 µM); in data set [2] it was 5 mg/L (≈ 9.42 µM); in [8], over 100 mg/L; in data set [3] it was 10 mg/L (≈ 18.8 µM); in data set [4], 50 mg/L (≈ 94.2 µM); in data set [5] it was 75 mg/L (≈ 141 µM). Further, the MIC is 5 mg/L (≈ 9.42 µM) in data set [6]; over 100 mg/L in [9]; over 100 mg/L in data set [10]; over 100 mg/L in data set [11]; over 100 mg/L in [12]; over 100 mg/L in data set [13]. In addition, the “activity of the collected HPLC fraction” value in the data set with Bacillus subtilis is “active”. In data set [7], the “Relative solubility: Highly soluble (solvents)” value is “water, methanol, n-butanol, ethanol, 1-propanol and acetone; also recorded: MeOH, Me2CO, H20, n-; also recorded: BuOH, EtOH, 1-PrOH”. Besides, the “Relative solubility: Insoluble (solvents)” value in data set [7] was “n-hexane and toluene”. The “Relative solubility: Medium soluble (solvents)” value in data set [7] is “CH2Cl2, CHCl3, EtOAc, and 2-PrOH”.

Take `COC1C(OCC2C(C)OC(=O)/C=C/C(C)C(OC3OC(C)CC(O)(C(C)O)C3O)C(C)CC(C)C(=O)/C=C/C3OC32)OC(C)C(O)C1OC` (stereo not drawn) [P8, aldgamycin H]: the MIC in data set [2] is 1 mg/L (≈ 1.4 µM); in data set [8], over 100 mg/L; in [9], over 100 mg/L; in [10], over 100 mg/L; in data set [11], over 100 mg/L; in data set [12], over 100 mg/L. In data set [13], this compound had an MIC of over 100 mg/L. The “activity of the collected HPLC fraction” value in the data set with Bacillus subtilis is “active”. In addition, the “Relative solubility: Highly soluble (solvents)” value in data set [7] was “methanol, n-butanol, ethanol, 1 and 2-propnol, ethyl acetate, acetone, chloroform and dichloromethane; also recorded: MeOH, EtOR, Me2CO,; also recorded: n-BuOH, 1-PrOH, 2-; also recorded: PrOH, CH2Cl2,; also recorded: EtOAc, CHCl3”.

For the compound `CC1OC(Oc2cccc3c2C(=O)c2c(O)c4c(c(O)c2C3=O)CC(C)(O)CC4O)C(O)C(O)C1O` (stereo not drawn) [G, mutactimycin G], the activity in words result in data set [1], in data set [2], in data set [3], in data set [5] and in data set [6] was “active” in each case. In addition, the “activity of the collected HPLC fraction” value in the data set with Bacillus subtilis is recorded as “active”. Besides, the “soluble in (solvents)” value in data set [7] is “water, n-butanol, 1-propanol, methanol and ethanol”. Also, the “Relative solubility: Highly soluble (solvents)” value in data set [7] is “n-BuOH, l-PrOH”. Also, the “Relative solubility: Insoluble (solvents)” value in data set [7] is “chloroform, dichloromethane, ethyl acetate, n-hexane and toluene; also recorded: H2O, CH2Cl2, CHCl3, EtOAc,; also recorded: Me2CO, n-hexane, toluene”. Besides, in [7], the “Relative solubility: Medium soluble (solvents)” value is listed as “MeOH, EtOH”.

Regarding `COC1C(O)C(C)OC(OC2CC(C)(O)Cc3c(O)c4c(c(O)c32)C(=O)c2c(OC3OC(C)C(O)C(O)C3O)cccc2C4=O)C1O` (stereo not drawn) [PR, mutactimycin PR], the activity in words result in data set [1], in [2], in data set [3], in data set [5] and in [6] was “active” in each case. For the same compound, the MIC in data set [1] was 75 mg/L (≈ 113 µM); in [2], 50 mg/L (≈ 75.5 µM); in data set [8], over 100 mg/L; in [3], 50 mg/L (≈ 75.5 µM); in data set [4], over 100 mg/L; in [5], over 100 mg/L. Further, the MIC was 40 mg/L (≈ 60.4 µM) in data set [6]; over 100 mg/L in data set [9]; over 100 mg/L in data set [10]; over 100 mg/L in data set [11]; over 100 mg/L in data set [12]; over 100 mg/L in data set [13]. The “activity of the collected HPLC fraction” value with Bacillus subtilis is recorded as “active”. Besides, the “Relative solubility: Highly soluble (solvents)” value in [7] was “water, methanol and ethanol”; in data set [7] (listed as mutactimycin PR), “MeOH, EtOH, H2O”. For the same compound, the “Relative solubility: Insoluble (solvents)” value in data set [7] was “chloroform, dichloromethane, ethyl acetate, n-hexane and toluene”; in data set [7] (listed as mutactimycin PR), “CH2Cl2, CHCl3,; also recorded: EtOAc, n-hexane,; also recorded: toluene”. For the same compound, in data set [7] (listed as mutactimycin PR), the “Relative solubility: Medium soluble (solvents)” value is “Me2CO, n-BuOH, 1-; also recorded: PrOH, 2-PrOH”.

On to `COC1C(OCC2/C=C/C=C/C(=O)C(C)CC(C)C(OC3OC(C)CC(O)(C(C)O)C3O)C(C)/C=C/C(=O)OC2C)OC(C)C(O)C1OC` (stereo not drawn) [P10b, aldgamycin P10b], for which the MIC in [1] was 1 mg/L (≈ 1.43 µM); in [2], 1 mg/L (≈ 1.43 µM); in data set [8], over 100 mg/L; in [3], 1 mg/L (≈ 1.43 µM); in data set [4] it was 30 mg/L (≈ 42.9 µM); in data set [5], 50 mg/L (≈ 71.5 µM). The MIC is 0.1 mg/L (≈ 0.143 µM) in data set [6]; over 100 mg/L in data set [9]; over 100 mg/L in [10]; over 100 mg/L in data set [11]; over 100 mg/L in data set [12]; over 100 mg/L in [13]. Further, the “activity of the collected HPLC fraction” value with Bacillus subtilis is reported as “active”. For the same compound, in [7], the “Relative solubility: Highly soluble (solvents)” value is “methanol, n-butanol, ethanol, 1 and 2-propnol, ethyl acetate, acetone, chloroform and dichloromethane”. Besides, the “Relative solubility: Insoluble (solvents)” value in [7] was “water and n-hexane”.

Take `COc1cccc2c1C(=O)c1c(O)c3c(c(O)c1C2=O)CC(C)(O)CC3OC1OC(C)C(O)C(O)C1O` (stereo not drawn) [F, mutactimycin F]: the activity in words entry in [1], in data set [2], in [3], in data set [5] and in data set [6] was “active” each time. The “activity of the collected HPLC fraction” value in the data set with Bacillus subtilis is listed as “active”. In addition, in data set [7], the “soluble in (solvents)” value is “water, n-butanol, 1-propanol and ethanol”. Further, the “Relative solubility: Highly soluble (solvents)” value in [7] is “n-BuOH, 1-PrOH”. Moreover, the “Relative solubility: Insoluble (solvents)” value in data set [7] is “n-hexane and toluene”; in [7] (listed as Mutactimycin F) it was “H2O, CH2Cl2, CHCl3; also recorded: EtOAc, Me2CO, n-hexane,; also recorded: toluene”. In data set [7], the “Relative solubility: Medium soluble (solvents)” value is recorded as “MeOH, EtOH”.
